This note sets out measurements from patent US9682993B2, “Anticancer compounds” (ST. JUDE CHILDREN'S RESEARCH HOSPITAL, priority 2012, dated 2017).

Bounds are passed on as bounds.

A short description of the data set: In vivo plasma pharmacokinetic study in C.B-17 scid mice. How it is done: A sensitive and specific LC-MS/MS assay was developed for quantification of compound 20 in plasma for application in a murine pharmacokinetic study. Calibrators and quality controls (QCs) were prepared using 100% methanol stocks in blank C.B-17 scid mouse plasma with lithium heparin anticoagulant. The calibrators and QCs, 25 μL each, were stored briefly on wet ice and then protein precipitated with 75 μL of ice cold compound 19 internal standard processing solution. The supernatants, 100 μL of each, were mixed with 100 μL of methanol-10 mM ammonium bicarbonate, pH 7.0 (50:50 v/v) and injected from the 96-well plate to the LC-MS/MS system via a CTC HTS PAL autosampler. Chromatography was performed using a Phenomenex Synergi Fusion-RP C18 column ([…], 50 mm×2.0 mm) maintained at 35° C., and a linear gradient mobile phase consisting of water:methanol:acetonitrile ([…], v/v) to methanol: acetonitrile (70:30, v/v) and back. […] Detection was performed with an AB Sciex 5500 QTRAP LC-MS/MS System equipped with a Turbo IonSpray® source using the positive multiple-reaction monitoring (MRM) mode. The transitions monitored included m/x 475->288 for compound 20 and m/x 489->400 for compound 19, which served as an internal standard. The lower limit of quantitation was 1 ng/mL (5× S:N ration, <20% CV); intra-run precision and accuracy was ≦11.2% CV and 96.5-103%, respectively. The calibration curve was linear from 1 to 500 ng/mL (R=0.9968) and QC samples above the limit of quantitation (500 ng/mL) were precisely and accurately diluted into the linear range with blank C.B-17 scid mouse plasma.
A plasma PK study of compound 20 in male C.B-17 scid mice receiving a continuous i.v. infusion of compound 20 (100 mg/kg over 30 min) was performed. Compound 20 was formulated in 15% Captisol®/50 mM Na2HPO4/NaH2PO4 solution at 3 mg/mL and infused with a syringe pump at a rate of 20 μL/min via a jugular vein catheter. Blood samples (1 to 2 samples per mouse, 18 samples from 11 total mice) were collected by either retro-orbital sinus bleeding or terminal cardiac puncture at the following times after the start of infusion: 7.5, 15, 30 (end of infusion), 35, 45, and 60 minutes. The samples were immediately processed to plasma by centrifugation at 2000 g for 5 min; the resultant volume of plasma was then protein precipitated with a 3:1 volume of ice cold IS processing solution. The supernatants were immediately placed on dry ice and then stored at −80° C. until analysis.
The concentration-time data for compound 20 in mice was analyzed using the MLEM population estimation method as implemented in ADAPTS (D'Argenio, D. Z. and Schumitzky, A., Wang ADAPT 5 User's Guide: Pharmacokinetic/Pharmacodynamic Systems Analysis Software; Biomedical Simulations Resource: Los Angeles, Calif., USA, 2009). A linear, one-compartment PL model was fit to the data, and the adequacy of the fit was assessed by the −2 log likelihood value, visual predictive checks, and the residual plots. Inter-individual variability in plasma clearance (CL) and volume of distributions (V) was assumed to be log-normally distributed with the covariance matrix constrained to diagonal elements. The residual, intra-individual error was described using an additive and proportional model, with the additive term fixed to the lower limit of quantitation of the LC-MS/MS assay (LLOQ, 1 ng/mL). Beal's M3 method was used to handle data that was below the LLOQ (Beal, S. L., J. Pharmacokinet. Pharmacodyn. 2001, 28, 481). Other secondary parameters, such as the area under the plasma concentration-time curve to infinity (AUCinf), maximum plasma concentration (Cmax), and the time of Cmax (Tmax) were derived for the population using standard formulae (Pharmacokinetics, Second Edition; Gibaldi, M.; Perrier, D., Eds.; 2nd ed.; CRC Press, 1982).

[1] abbreviates: male, C.B-17 scid, mouse, plasma, iv, 100 mg/kg, i.v. infusion over 30 min, population.

As for `CNC(=O)O[C@@H](C)/C=C\C(=O)N[C@H]1CC[C@@H](C/C=C(C)/C=C/[C@@H]2C[C@]3(CO3)CC(C)(C)O2)CC1` [compound 20, (S,Z)-5-(((1R,4R)-4-((2E,4E)-5-((3R,5S)-7,7-Methyl-1,6-Dioxaspiro[2.5]Octan-5-Yl)-3-Methylpenta-2,4-Dien-1-Yl)Cyclohexyl)Amino)-5-Oxopent-3-En-2-Yl Methylcarbamate], for the setting “i.v. infusion over 30 min”, the “mean CL relative to hepatic blood flow” value is reported as 3 fold. Besides, the V (i.v. infusion over 30 min, population mean) was 0.877 L/kg. Further, under setting [1], the total exposure AUC(0-inf) was 12.5 µM·h, the highest concentration (Cmax) is 24.1 µM and the Tmax was 30 min. For the setting “male, C.B-17 scid, mouse, plasma, iv, 100 mg/kg, i.v. infusion over 30 min, population mean terminal elimination half-life”, the half-life was found to be 2.18 min. Besides, the clearance (male, C.B-17 scid, mouse, plasma, iv, i.v. infusion over 30 min (100 mg/kg, 50 mg/kg elsewhere in the source), population mean) was 280 mL/min/kg. Where the note is “target far exceeded and maintained for an adequate time period”, the “plasma concentration versus target plasma concentration” value is more than 0.5 µM.
